The results in this text go back to ChEMBL document CHEMBL1201862, “PubChem BioAssay data set” (2004).

What all share (assay): NCI-60 cell line screen, 48 h
Assay [1] concerns HL-60.
For assay [2], the system named is Malme-3M.
Assay [3] relates to OVCAR-3.
For assay [4], the system named is A549.
Assay [5] deals with CCRF-CEM.
Assay [6] concerns K562.
The test system of assay [7] is ACHN.
Assay [8] deals with HOP-62.
In assay [9] the test system is SN12C.
In assay [10] the test system is SNB-19.
Assay [11] has as its system UACC-257.
Assay [12] has as its system SF-295.
Assay [13] has as its system NCI-H460.
The subject of assay [14] is HCT-15.
The test system of assay [15] is OVCAR-5.
For assay [16], the system named is UACC-62.
Assay [17] concerns SR.
Assay [18] concerns RXF 393.

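Method: 48-hour compound exposure of cells in 96-well plates, five concentrations, linear interpolation of endpoints. GI50: concentration for 50% inhibition of growth.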 Activity calls are given as the source filed them. Rule as the data show it: active = GI50 up to about 1.1 µM and inactive = higher.

In the case of `CC(=O)c1c(C)[n+]([O-])c2cc(C)c(C)cc2[n+]1[O-]`, the GI50 in assay [1], in [2], in assay [3], in [4], in assay [5] and in assay [6] was > 100 µM (inactive) throughout. Moreover, the GI50 in assay [7], in assay [8], in assay [9], in [10], in assay [11] and in assay [12] was > 100 µM (inactive) each time. In addition, the GI50 in assay [13] is > 100 µM (inactive); in assay [14], over 100 µM; in assay [15], > 100 µM (inactive); in assay [16], > 100 µM (inactive).

On to `COc1ccc(OC)c(CCc2cc(OC)c(OC)cc2C)c1`, for which the GI50 is 4.2 µM (inactive) in assay [2]; 3.05 µM (inactive) in assay [3]; 29.3 µM (inactive) in assay [4]; 11 µM (inactive) in assay [5]; 3.64 µM (inactive) in [6]; > 100 µM (inactive) in [7]. Also, the GI50 is 49.1 µM (inactive) in [8]; 81.3 µM (inactive) in assay [9]; 92.7 µM (inactive) in assay [10]; 26.7 µM (inactive) in [11]; 6.89 µM (inactive) in assay [12]; 34.2 µM (inactive) in assay [13]. In addition, the GI50 in assay [15] was > 100 µM (inactive); in assay [16] it was 25.2 µM (inactive).

`Nc1nc2c(ncn2CCOC(c2ccccc2)P(=O)(O)O)c(=O)[nH]1` (stereo unspecified): the GI50 in assay [17], in [1], in [2], in assay [3], in [4] and in [7] was > 100 µM (inactive) throughout. The GI50 in assay [9] is > 100 µM (inactive); in assay [10], > 100 µM (inactive); in assay [11], > 100 µM (inactive); in [12], > 100 µM (inactive); in assay [13] it was > 100 µM (inactive); in assay [14], over 100 µM. For the same compound, the GI50 in assay [15], in [16] and in assay [18] was > 100 µM (inactive) in each case.

As to `COC(=O)C(=O)C(/C(=N/N)C(=O)Nc1ccccc1C(N)=O)c1nc2ccc([N+](=O)[O-])cc2nc1O` (stereo unspecified), the GI50 in assay [17], in assay [1], in [2], in assay [3], in assay [4] and in [5] was > 100 µM (inactive) each time. The GI50 in assay [6], in assay [7], in [8], in assay [9], in [10] and in [11] was > 100 µM (inactive) throughout. Further, the GI50 in assay [12] was > 100 µM (inactive); in assay [13], > 100 µM (inactive); in assay [14], over 100 µM; in assay [15], > 100 µM (inactive); in [16] it was > 100 µM (inactive).

Consider `COc1ccccc1C1C(C(=O)Nc2ccccc2)=C(C)NC(C)=C1C(=O)Nc1ccccc1`, for which the GI50 in [2] is > 100 µM (inactive); in assay [3], 84.1 µM (inactive); in assay [6] it was 44.8 µM (inactive); in [7], 39.5 µM (inactive); in assay [8], 83.8 µM (inactive); in assay [9], > 100 µM (inactive). For the same compound, the GI50 was > 100 µM (inactive) in [10]; 75.9 µM (inactive) in assay [11]; 76.4 µM (inactive) in assay [12]; 44 µM (inactive) in assay [13]; 54 µM in assay [14]; 91 µM (inactive) in assay [15]. In addition, the results for the GI50 in assay [16] and in assay [18] were 40.6 µM (inactive) and 80.2 µM (inactive), respectively.

As to `S=c1[nH]c(=S)c2nnn(-c3ccccc3)c2[nH]1`, the GI50 in [17], in [1], in assay [2], in [3], in assay [4] and in [5] was > 100 µM (inactive) in each case. The GI50 in [6], in [7], in assay [8], in assay [9], in assay [10] and in assay [11] was > 100 µM (inactive) throughout. Moreover, the GI50 is > 100 µM (inactive) in assay [13]; over 100 µM in [14]; > 100 µM (inactive) in [15]; > 100 µM (inactive) in assay [16]; > 100 µM (inactive) in [18].

Take `NC(=O)NNC(=O)CCn1[nH]c(=O)c(Cl)c(Cl)c1=O`: the GI50 in [1], in [2], in assay [3], in assay [4], in assay [5] and in assay [6] was > 100 µM (inactive) throughout. Further, the GI50 in [7], in assay [8], in assay [9], in assay [10], in assay [11] and in assay [12] was > 100 µM (inactive) in each case. The GI50 in assay [13] is > 100 µM (inactive); in assay [14], over 100 µM; in assay [15] it was > 100 µM (inactive); in assay [16], > 100 µM (inactive); in assay [18], > 100 µM (inactive).

Regarding `COc1ccc(C2=Nc3ccccc3SC(C)C2)cc1` (stereo unspecified), the GI50 in [1] is 46 µM (inactive); in assay [2], > 100 µM (inactive); in [3], > 100 µM (inactive); in [4] it was > 100 µM (inactive); in [5] it was 33.4 µM (inactive); in assay [6], 24.4 µM (inactive). The GI50 in assay [7], in [8], in assay [9], in assay [10], in assay [11] and in [12] was > 100 µM (inactive) each time. Also, the GI50 is > 100 µM (inactive) in assay [13]; over 100 µM in assay [14]; > 100 µM (inactive) in assay [15]; > 100 µM (inactive) in [16]; > 100 µM (inactive) in assay [18].

Take `CCc1cccc(C)c1NC(=O)C1=C(C)NC(C)=C(C(=O)Nc2c(C)cccc2CC)C1c1ccc2c(c1)OCO2`: the GI50 in assay [1] is 21.4 µM (inactive); in assay [2], 15.6 µM (inactive); in [3], 17.5 µM (inactive); in assay [4], 16.9 µM (inactive); in [5], 18.8 µM (inactive); in assay [6] it was 27.2 µM (inactive). For the same compound, the GI50 in [7] was 15.5 µM (inactive); in assay [8] it was 20.7 µM (inactive); in assay [9], 19.2 µM (inactive); in assay [10], 29.1 µM (inactive); in assay [11], 18.5 µM (inactive); in assay [12], 17.5 µM (inactive). In addition, the GI50 in assay [13] was 16.1 µM (inactive); in assay [15], 22 µM (inactive); in [18] it was 13.2 µM (inactive).

Consider `CCOc1ccccc1NC(=O)CC1C(=O)Nc2ccccc2[S+]1[O-]` (stereo unspecified), for which the GI50 was 16.5 µM (inactive) in [17]; 26.8 µM (inactive) in [1]; > 100 µM (inactive) in assay [2]; 39.5 µM (inactive) in [3]; > 100 µM (inactive) in [4]; 39.8 µM (inactive) in assay [5]. For the same compound, the GI50 in [6] was 49.7 µM (inactive); in assay [7], 66.2 µM (inactive); in assay [9], > 100 µM (inactive); in assay [10] it was > 100 µM (inactive); in [11] it was > 100 µM (inactive); in assay [12], > 100 µM (inactive). Moreover, the GI50 was 80 µM (inactive) in assay [13]; over 100 µM in assay [14]; > 100 µM (inactive) in assay [15]; 26.3 µM (inactive) in [16]; 50 µM (inactive) in assay [18].

As to `C/C(=C\C(C)COCc1ccccc1)[C@H](COCc1ccccc1)OCc1ccccc1` (stereo partly specified), the GI50 in [1] is > 10 µM (inactive); in assay [3], > 100 µM (inactive); in assay [4], > 100 µM (inactive); in [5], 68.1 µM (inactive); in assay [6], 73.1 µM (inactive); in assay [7], > 100 µM (inactive). Besides, the GI50 in [8] was > 100 µM (inactive); in assay [9] it was > 100 µM (inactive); in assay [10], > 100 µM (inactive); in [12] it was > 100 µM (inactive); in assay [13], > 100 µM (inactive); in assay [14], over 100 µM. Further, the GI50 in assay [15] is > 100 µM (inactive); in assay [16] it was > 100 µM (inactive); in [18], 26.9 µM (inactive).

For the compound `CCCCCCCCCCCC[N+]12CC[N+](C)(CC1)CC2`, the GI50 in [17] was 6.18 µM (inactive); in [1] it was 16.4 µM (inactive); in assay [2], 46.9 µM (inactive); in [3] it was 64.1 µM (inactive); in [4], 54.7 µM (inactive); in assay [5], 18.8 µM (inactive). The GI50 in assay [6] was 23.8 µM (inactive); in [7] it was 55.1 µM (inactive); in [8], 29.2 µM (inactive); in assay [9], 18.3 µM (inactive); in assay [10], 14 µM (inactive); in assay [11], > 100 µM (inactive). Besides, the GI50 in assay [12] is 22.3 µM (inactive); in assay [13] it was 6.38 µM (inactive); in assay [15], 17.1 µM (inactive); in assay [16] it was 22.6 µM (inactive); in assay [18] it was 1.31 µM (inactive).
